Source: patent US8492372B2, “Modulators of dopamine neurotransmission” (Integrated Research Laboratories Sweden AB, priority 2008, dated 2013)
Where a name gives a salt, the structure may show the parent alone. Each block holds one compound with its values, some of them ahead of it.

Legend:
[1] = tested on: amphetamine-induced hyper-locomotion; assay: Reduction of amphetamine-induced hyper-locomotion (in vivo behaviour); conditions: range in brackets covers 95% of fits; for ED50: Rattus norvegicus, read-out: ED50 reduction of amphetamine-induced hyper-locomotion, rats pre-treated with d-amphetamine 1.5 mg/kg i.p., test compound s.c., curve fit
[2] = tested on: Locomotor activity in drug-naive rats; assay: Locomotor activity in drug-naive rats (in vivo behaviour); design: species or system rat; conditions: recorded for 60 minutes immediately after drug administration
Source text: Photobeam sensors are spaced 2.5 cm apart.

[3] = tested on: DOPAC (3,4-dihydroxyphenylacetic acid) in the rat striatum; assay: Increase of DOPAC in the rat striatum after systemic administration (in vivo neurochemistry); conditions: estimated ED50 on increase of DOPAC in rat striatum, curve fit, range in brackets covers 95% of fits; for ED50 DOPAC: s.c.; for ED50: Rattus norvegicus, sc
Source text: After the behavioural activity sessions, the rats are decapitated and their brains rapidly taken out and put on an ice-cold petri-dish. The limbic forebrain, the striatum, the frontal cortex and the remaining hemispheral parts of each rat are dissected and frozen. Each brain part is subsequently analyzed with respect to its content of monoamines and their metabolites.
The monoamine transmitter substances (NA (noradrenaline), DA (dopamine), 5-HT (serotonin)) as well as their amine (NM (normethanephrine), 3-MT (3-methoxytyramine)) and acid (DOPAC (3,4-dihydroxyphenylacetic acid), 5-HIAA (5-hydroxyindoleacetic acid), HVA (homovanillic acid)) metabolites are quantified in brain tissue homogenates by HPLC separations and electrochemical detection.
The analytical method is based on two chromatographic separations dedicated for amines or acids. Two chromatographic systems share a common auto injector with a 10-port valve and two sample loops for simultaneous injection on the two systems. Both systems are equipped with a reverse phase column (Luna C18(2), dp 3 μm, 50*2 mm i.d., Phenomenex) and electrochemical detection is accomplished at two potentials on glassy carbon electrodes (MF-1000, Bioanalytical Systems, Inc.). The column effluent is passed via a T-connection to the detection cell or to a waste outlet. This is accomplished by two solenoid valves, which block either the waste or detector outlet. By preventing the chromatographic front from reaching the detector, better detection conditions are achieved. The aqueous mobile phase (0.4 ml/min) for the acid system contains citric acid 14 mM, sodium citrate 10 mM, MeOH 15% (v/v) and EDTA 0.1 mM. Detection potentials relative to Ag/AgCl reference are 0.45 and 0.60V. The aqueous ion pairing mobile phase (0.5 ml/min) for the amine system contains citric acid 5 mM, sodium citrate 10 mM, MeOH 9% (v/v), MeCN 10.5% v/v), decane sulfonic acid 0.45 mM, and EDTA 0.1 mM. Detection potentials relative to Ag/AgCl reference are 0.45 and 0.65V.
ED50 values for the increase of DOPAC in striatum are calculated by curve fitting.

- melting point: 213 °C
SMILES: CCCNCC1OCc2ccc(S(C)(=O)=O)cc2O1 (centres unmarked) (as salt: hydrochloric acid salt) [Example 3, N-{[7-(METHYLSULFONYL)-4H-1,3-BENZODIOXIN-2-YL]METHYL}PROPAN-1-AMINE]

- melting point: 169 °C
SMILES: CCNCC1OCc2ccc(S(=O)(=O)C(F)(F)F)cc2O1 (centres unmarked) (as salt: hydrochloric acid salt)

- melting point: 225 °C
SMILES: CNCC1OCc2ccc(S(C)(=O)=O)cc2O1 (centres unmarked) (as salt: hydrochloric acid salt) [Example 12, N-METHYL-1-[7-(METHYLSULFONYL)-4H-1,3-BENZODIOXIN-2-YL]METHANAMINE]

SMILES: CCCNCC1OCc2ccc(S(C)(=O)=O)cc2O1 (single isomer, unassigned; (+)) [Example 5, (+)-N-{[7-(METHYLSULFONYL)-4H-1,3-BENZODIOXIN-2-YL]METHYL}PROPAN-1-AMINE]
- ED50 [1]: 15 µmol/kg
- Locomotor activity ([2]; 3.7 μmol/kg): 9173 ± 3160 counts/60 min ± SEM
- Locomotor activity ([2]; 11 μmol/kg): 8274 ± 801 counts/60 min ± SEM
- Locomotor activity ([2]; 33 μmol/kg): 4854 ± 771 counts/60 min ± SEM
- ED50 DOPAC [3]: 12 (9.3-14) μmol/kg

SMILES: CS(=O)(=O)c1ccc2c(c1)OC(CN1CCCCC1)OC2 (centres unmarked) [Example 21, 1-{[7-(METHYLSULFONYL)-4H-1,3-BENZODIOXIN-2-YL]METHYL}PIPERIDINE]
- ED50 [1]: 14 µmol/kg
- Locomotor activity ([2]; 3.7 μmol/kg): 8285 ± 721 counts/60 min ± SEM
- Locomotor activity ([2]; 11 μmol/kg): 6585 ± 707 counts/60 min ± SEM
- Locomotor activity ([2]; 33 μmol/kg): 4197 ± 923 counts/60 min ± SEM
- ED50 [3]: 13 µmol/kg

- melting point: 182 °C
SMILES: CCCNCC1OCc2cc(F)c(Br)cc2O1 (centres unmarked) (as salt: hydrochloric acid salt) [Example 19, N-[(7-BROMO-6-FLUORO-4H-1,3-BENZODIOXIN-2-YL)METHYL]PROPAN-1-AMINE]

SMILES: CCCNCC1OCc2cc(F)c(S(C)(=O)=O)cc2O1 (centres unmarked) [Example 20, N-{[6-FLUORO-7-(METHYLSULFONYL)-4H-1,3-BENZODIOXIN-2-YL]METHYL}PROPAN-1-AMINE]
- Locomotor activity ([2]; 3.7 μmol/kg): 8830 ± 1277 counts/60 min ± SEM
- Locomotor activity ([2]; 11 μmol/kg): 10181 ± 1385 counts/60 min ± SEM
- Locomotor activity ([2]; 33 μmol/kg): 5502 ± 474 counts/60 min ± SEM
- ED50 [3]: 11 µmol/kg

- melting point: 201 °C
SMILES: CCCNCC1OCc2ccc(S(=O)(=O)C(F)(F)F)cc2O1 (centres unmarked) (as salt: hydrochloric acid salt) [Example 8, N-({7-[(TRIFLUOROMETHYL)SULFONYL]-4H-1,3-BENZODIOXIN-2-YL}METHYL)PROPAN-1-AMINE]

- melting point: 203 °C
SMILES: CCCNCC1OCc2ccc(C(F)(F)F)cc2O1 (centres unmarked) (as salt: hydrochloric acid salt) [Example 1, N-{[7-(TRIFLUOROMETHYL)-4H-1,3-BENZODIOXIN-2-YL]METHYL}PROPAN-1-AMIN]

SMILES: CCCNCC1OCc2ccc(S(C)(=O)=O)cc2O1 (single isomer, unassigned; (-)) [Example 4, (−)-N-{[7-(METHYLSULFONYL)-4H-1,3-BENZODIOXIN-2-YL]METHYL}PROPAN-1-AMINE]
- ED50 reduction of amphetamine-induced hyper-locomotion ([1]; rats pre-treated with d-amphetamine 1.5 mg/kg i.p., test compound s.c., curve fit): 27 (19-35) μmol/kg
- Locomotor activity ([2]; 3.7 μmol/kg): 9158 ± 2094 counts/60 min ± SEM
- Locomotor activity ([2]; 11 μmol/kg): 11153 ± 1257 counts/60 min ± SEM
- Locomotor activity ([2]; 33 μmol/kg): 12588 ± 331 counts/60 min ± SEM
- ED50 DOPAC [3]: 27 (23-31) μmol/kg

SMILES: CCCNCC1OCc2c(F)cc(S(C)(=O)=O)cc2O1 (centres unmarked) [Example 17, N-{[5-FLUORO-7-(METHYLSULFONYL)-4H-1,3-BENZODIOXIN-2-YL]METHYL}PROPAN-1-AMINE]
- Locomotor activity ([2]; 3.7 μmol/kg): 10520 ± 1381 counts/60 min ± SEM
- Locomotor activity ([2]; 11 μmol/kg): 8330 ± 2194 counts/60 min ± SEM
- Locomotor activity ([2]; 33 μmol/kg): 3319 ± 140 counts/60 min ± SEM
- ED50 [3]: 8.6 µmol/kg

SMILES: CCCNCC1OCc2ccc(S(=O)(=O)C(F)(F)F)cc2O1 (centres unmarked) [Example 8, N-({7-[(TRIFLUOROMETHYL)SULFONYL]-4H-1,3-BENZODIOXIN-2-YL}METHYL)PROPAN-1-AMINE]
- ED50 [1]: 4.9 µmol/kg
- Locomotor activity ([2]; 3.7 μmol/kg): 11601 ± 583 counts/60 min ± SEM
- Locomotor activity ([2]; 11 μmol/kg): 7064 ± 1032 counts/60 min ± SEM
- Locomotor activity ([2]; 33 μmol/kg): 2641 ± 757 counts/60 min ± SEM
- ED50 [3]: 7 µmol/kg

SMILES: O=S(=O)(c1ccc2c(c1)OC(CN1CCCC1)OC2)C(F)(F)F (centres unmarked) [Example 7, 1-({7-[(TRIFLUOROMETHYL)SULFONYL]-4H-1,3-BENZODIOXIN-2-YL}METHYL)PYRROLIDINE]
- ED50 [1]: 50 µmol/kg
- Locomotor activity ([2]; 3.7 μmol/kg): 9548 ± 1455 counts/60 min ± SEM
- Locomotor activity ([2]; 11 μmol/kg): 7270 ± 278 counts/60 min ± SEM
- Locomotor activity ([2]; 33 μmol/kg): 11818 ± 2775 counts/60 min ± SEM
- ED50 [3]: 48 µmol/kg

SMILES: CCCNCC1OCc2ccc(C(F)(F)F)cc2O1 (centres unmarked) [Example 1, N-{[7-(TRIFLUOROMETHYL)-4H-1,3-BENZODIOXIN-2-YL]METHYL}PROPAN-1-AMIN]
- ED50 [1]: 3.9 µmol/kg
- Locomotor activity ([2]; 3.7 μmol/kg): 8038 ± 1487 counts/60 min ± SEM
- Locomotor activity ([2]; 11 μmol/kg): 7279 ± 968 counts/60 min ± SEM
- Locomotor activity ([2]; 33 μmol/kg): 2682 ± 802 counts/60 min ± SEM
- ED50 [3]: 17 µmol/kg

- melting point: 215 °C
SMILES: CCCNCC1OCc2c(F)cc(Br)cc2O1 (centres unmarked) (as salt: oxalic acid salt) [Example 16, N-[(7-BROMO-5-FLUORO-4H-1,3-BENZODIOXIN-2-YL)METHYL]PROPAN-1-AMINE]

- melting point: 184 °C
SMILES: O=S(=O)(c1ccc2c(c1)OC(CN1CCCC1)OC2)C(F)(F)F (centres unmarked) (as salt: fumaric acid salt) [Example 7, 1-({7-[(TRIFLUOROMETHYL)SULFONYL]-4H-1,3-BENZODIOXIN-2-YL}METHYL)PYRROLIDINE]

SMILES: CCCNCC1OCc2c(F)cc(Br)cc2O1 (centres unmarked) [Example 16, N-[(7-BROMO-5-FLUORO-4H-1,3-BENZODIOXIN-2-YL)METHYL]PROPAN-1-AMINE]
- Locomotor activity ([2]; 3.7 μmol/kg): 8637 ± 1217 counts/60 min ± SEM
- Locomotor activity ([2]; 11 μmol/kg): 7537 ± 2127 counts/60 min ± SEM
- Locomotor activity ([2]; 33 μmol/kg): 7393 ± 1395 counts/60 min ± SEM
- ED50 [3]: 20 µmol/kg
